Results published in US11603355B2, “Charged ion channel blockers and methods for use” (Nocion Therapeutics, Inc., priority 2019, dated 2023).
Counter-ions that a name gives are not always drawn.

Columns and labels:
NaV1.7 [1] = target: T1, NaV1.7 (Homo sapiens, UniProt Q15858); experiment: Automated patch clamp (Qube 384), internal block of NaV1.7; format: cell-based; conditions: IC50, compound in internal solution, HEK293 cells, read-out: Nav1.7 Intracellular Inhibition
T1 construct: expressed in transfected cells; host or cells: HEK293 (tetracycline-inducible)
T1 sequence (Q15858 whole entry): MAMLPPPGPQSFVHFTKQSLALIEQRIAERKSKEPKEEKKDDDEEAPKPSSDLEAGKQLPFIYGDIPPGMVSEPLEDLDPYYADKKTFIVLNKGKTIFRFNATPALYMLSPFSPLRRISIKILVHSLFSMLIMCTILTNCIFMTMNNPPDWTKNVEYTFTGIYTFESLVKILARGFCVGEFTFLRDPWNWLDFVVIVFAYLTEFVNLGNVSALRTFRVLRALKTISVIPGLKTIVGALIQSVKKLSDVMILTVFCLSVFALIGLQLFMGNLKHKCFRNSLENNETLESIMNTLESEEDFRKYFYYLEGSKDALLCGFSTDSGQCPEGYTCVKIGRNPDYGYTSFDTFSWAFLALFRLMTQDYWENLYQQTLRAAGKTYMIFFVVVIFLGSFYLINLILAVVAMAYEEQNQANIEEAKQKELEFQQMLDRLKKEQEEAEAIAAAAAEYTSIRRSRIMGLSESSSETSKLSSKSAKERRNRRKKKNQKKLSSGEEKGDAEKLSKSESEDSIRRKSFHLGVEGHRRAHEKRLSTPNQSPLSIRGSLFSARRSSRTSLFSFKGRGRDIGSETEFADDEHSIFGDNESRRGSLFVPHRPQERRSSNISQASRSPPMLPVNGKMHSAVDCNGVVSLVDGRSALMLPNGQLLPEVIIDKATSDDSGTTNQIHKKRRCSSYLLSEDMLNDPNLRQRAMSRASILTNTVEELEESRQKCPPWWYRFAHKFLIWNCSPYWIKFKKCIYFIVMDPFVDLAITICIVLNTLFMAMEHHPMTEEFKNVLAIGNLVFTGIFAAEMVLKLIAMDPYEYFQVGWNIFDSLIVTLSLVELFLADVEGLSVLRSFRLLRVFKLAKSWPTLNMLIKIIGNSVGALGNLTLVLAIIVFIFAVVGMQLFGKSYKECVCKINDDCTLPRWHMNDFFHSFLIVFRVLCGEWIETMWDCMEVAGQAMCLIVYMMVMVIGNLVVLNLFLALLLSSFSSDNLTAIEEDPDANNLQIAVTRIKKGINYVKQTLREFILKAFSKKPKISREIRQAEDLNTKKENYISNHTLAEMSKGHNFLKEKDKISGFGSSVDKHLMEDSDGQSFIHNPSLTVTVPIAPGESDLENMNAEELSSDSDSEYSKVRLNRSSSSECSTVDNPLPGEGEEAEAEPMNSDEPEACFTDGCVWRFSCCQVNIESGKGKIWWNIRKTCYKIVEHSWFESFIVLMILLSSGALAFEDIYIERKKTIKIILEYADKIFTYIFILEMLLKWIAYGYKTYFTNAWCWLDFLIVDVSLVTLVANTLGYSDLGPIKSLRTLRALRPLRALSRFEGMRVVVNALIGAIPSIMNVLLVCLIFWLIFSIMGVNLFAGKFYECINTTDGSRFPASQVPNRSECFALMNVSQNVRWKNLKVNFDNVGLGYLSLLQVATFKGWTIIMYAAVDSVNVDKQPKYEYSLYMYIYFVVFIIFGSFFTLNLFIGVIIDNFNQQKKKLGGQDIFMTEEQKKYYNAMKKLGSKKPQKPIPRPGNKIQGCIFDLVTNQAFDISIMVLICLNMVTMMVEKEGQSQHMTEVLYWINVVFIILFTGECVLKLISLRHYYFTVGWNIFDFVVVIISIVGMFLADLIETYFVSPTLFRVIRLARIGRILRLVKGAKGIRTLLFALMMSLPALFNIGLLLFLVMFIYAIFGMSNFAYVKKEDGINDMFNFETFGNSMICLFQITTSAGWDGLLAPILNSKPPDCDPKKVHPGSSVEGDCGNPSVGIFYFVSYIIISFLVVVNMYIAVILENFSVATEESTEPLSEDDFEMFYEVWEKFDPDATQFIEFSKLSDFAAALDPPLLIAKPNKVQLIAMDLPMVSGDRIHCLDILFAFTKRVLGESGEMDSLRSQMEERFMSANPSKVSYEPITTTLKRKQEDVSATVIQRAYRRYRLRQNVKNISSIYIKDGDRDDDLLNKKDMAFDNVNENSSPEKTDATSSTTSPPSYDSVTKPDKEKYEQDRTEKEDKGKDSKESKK
How it was run: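 Tetracycline-induced HEK293 cells, whole-cell Qube recording at 22 degrees; compounds dissolved in internal solution (CsF-based, pH 7.3), exchanged after baseline. Held at −100 mV, 10 ms pulses to −20 mV at 5 Hz for 10 min; remaining current (last 3 points) vs baseline, rundown-corrected with no-drug cells; Hill-fit IC50.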

NaV1.7 [2] = target: T1, NaV1.7; experiment: Automated patch clamp (Qube 384), external block of NaV1.7; format: cell-based; conditions: IC50, compound in external solution, HEK293 cells, read-out: Nav1.7 Extracellular Inhibition
Protocol: NaV1.7 was expressed in HEK293 cells upon induction with tetracycline. Cells were cultured in DMEM containing 10% dialyzed Fetal Bovine Serum (VWR, Radnor, Pa.), 1% Glutamax (VWR, Radnor, Pa.), 1% Penicillin-Streptomycin (VWR, Radnor, Pa.), 100 mg/L Hygromycin (Thermo Fisher Scientific, Waltham, Mass. and 5 mg/L Blasticidin (Alfa Aesar, Haverhill, Mass.). Cells were grown and maintained at 37° C. in a humidified environment containing 10% CO2 in air. Cells were detached from the culture flask for passage and harvested using 0.05% Trypsin-EDTA (Thermo Fisher Scientific, Waltham, Mass.). To induce NaV1.7, cells were induced with tetracycline (0.1-1 μg/mL, IBI Scientific, Peosta, Iowa) the day before recording.
Before experiments, cells were washed with DPBS (VWR, Radnor, Pa.), digested with Detachin (VWR Radnor, Pa.) and then triturated 10 times in CHO Serum-Free Media (VWR Radnor, Pa.) to resuspend the cells and to break apart cell aggregates. Cells were counted and the final concentration was set at 2-5 million cells per mL.
The intracellular solution contained the following: 140 mM CsF, 1 mM/5 mM EGTA/CsOH, 10 mM HEPES, 10 mM NaCl, adjusted to pH 7.3 with CsOH, and osmolality to 320 with OSM solution. The external solution contained the following: 145 mM NaCl, 4 mM KCl, 1 mM MgCl2, 2 mM CaCl2), 10 mM HEPES, 10 mM Glucose, adjusted to pH 7.4 with CsOH and osmolality to 305 with OSM solution. The OSM solution was a normal Ringer solution containing (in mM) NaCl 155, HEPES 10, sucrose, KCl 3.5, CaCl2) 1.5, MgCl2 1 adjusted to pH 7.4 with NaOH. All chemicals are from Sigma-Aldrich, St. Louis, Mo. In order to test the degree of internal block by test compounds, the compounds were dissolved in internal solution at the indicated test concentration. […] In order to test the degree of external block by test compounds the compounds were dissolved in external solution at the indicated test concentration.
Automated Patch Clamps were performed on Qube 384 (Sophion Bioscience, Woburn Mass.) with multihole Qchips at a temperature setting of 22 degrees. The whole cells configuration was formed with default Qube seal and break-in parameter. The membrane potential was held at −100 mV before the voltage protocol began. Two voltage protocols were followed.
Step 1: Cells were held at −100 mV with a depolarized pulse to −20 mV for 10 ms, the interval was set at 5 s. Currents were corrected by default leak subtraction from every pulse. The duration was set at 5 mins.
Step 2: Cells were held at −100 mV with a depolarized pulse to −20 mV for 10 ms. The frequency was 5 Hz. Currents were corrected by leak subtraction calculated before step 2. The duration was set at 4 mins.
After Step 2, the external solution was changed with solutions containing test compounds. Qchips were held at −100 mV without pulsing. The total solution switching time was 8 minutes. After the external solution exchange, cells were recorded using the same procedure as step 2 for 10 minutes.
Data analysis was performed by Sophion Analyzer. Data were corrected with control cells (Non-Drug). The IC50 data were plotted with DR-plots/Hill function (a dose-response plot with a Hill fit). Representative examples of the invention were tested for extracellular inhibition of NaV 1.7 in the automated patch clamp assay. Activity Range is reported as IC50: “++++” ([…], “+++” (1-3 μM), “++” ([…]) or “+” (>10 μM). The results are presented below.

[3] = PAMPA membrane permeability assay; format: in vitro ADME; conditions: permeability coefficient, pH 7.4 buffer, GIT lipid, 4 hours incubation
How it was run: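 Passive diffusion across a GIT-lipid-painted artificial membrane at pH 7.4, with a 50 uM donor stock diluted from DMSO and a 4 h incubation. UV spectra of the donor, acceptor and reference plates were read, and the permeability coefficient was calculated from the AUCs, in 10^−6 cm/s.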

| IC50 (NaV1.7 [1]) | IC50 (NaV1.7 [2]) | PAMPA (10^−6 cm/s) [3] | Compound |
| --- | --- | --- | --- |
| 300 to 1000 nM | 3000 to 10000 nM | ++ (“++” (0.1-2.0 10^−6 cm/s)) | Cc1cccc(F)c1NC(=O)C[N+]1(Cc2ccccc2)CCCCCC1.[Br-] [Compound 69A, 1-benzyl-1-(2-((2-fluoro-6-methylphenyl)amino)-2-oxoethyl)azepan-1-ium bromide] |
| 300 to 1000 nM | > 10000 nM | + (“+” (<0.1 10^−6 cm/s)) | COC(=O)c1ccccc1C[N+]1(CC(=O)Nc2c(C)cccc2C)CCCCC1.[Br-] [Compound 37A, 1-(2-((2,6-dimethylphenyl)amino)-2-oxoethyl)-1-(2-(methoxycarbonyl)benzyl) piperidin-1-ium bromide] |
| 300 to 1000 nM | > 10000 nM | + (“+” (<0.1 10^−6 cm/s)) | Cc1cccc(C)c1NC(=O)C[N+]1(Cc2ccccc2)CCCC(C(N)=O)C1.[Br-] (mixture of isomers) [Compound 53A, 1-benzyl-3-carbamoyl-1-(2-((2,6-dimethylphenyl)amino)-2-oxoethyl) piperidin-1-ium bromide] |
| 300 to 1000 nM | 3000 to 10000 nM | + (“+” (<0.1 10^−6 cm/s)) | CCCNC(=O)C1CCC[N+](CC(=O)Nc2c(C)cccc2C)(Cc2ccccc2)C1 (stereo not drawn) [Compound 57A] |
| 1000 to 3000 nM | > 10000 nM | + (“+” (<0.1 10^−6 cm/s)) | CC[N+](CC)(CCCc1ccccc1)CC(=O)Nc1c(C)cccc1C.[Br-] [Compound 86A, N-(2-((2,6-dimethylphenyl)amino)-2-oxoethyl)-N, N-diethyl-3-phenylpropan-1-aminium bromide] |
| 300 to 1000 nM | > 10000 nM | + (“+” (<0.1 10^−6 cm/s)) | Cc1cccc(C)c1NC(=O)C[N+]1(Cc2ccccc2)CCCC(C(=O)N2CCCC2)C1 (stereo not drawn) [Compound 62A] |
| 300 to 1000 nM | 3000 to 10000 nM | + (“+” (<0.1 10^−6 cm/s)) | Cc1cccc(C)c1C(=O)OCC[N+]1(Cc2ccccc2)CCCCCC1.[Br-] [Compound 82A, 1-benzyl-1-(2-((2,6-dimethylbenzoyl)oxy)ethyl) azepan-1-ium bromide] |
| 300 to 1000 nM | 1000 to 3000 nM | + (“+” (<0.1 10^−6 cm/s)) | CCOc1cccc(C)c1NC(=O)C[N+]1(Cc2ccccc2)CCCCCC1.[Br-] [Compound 77A] |
| 1000 to 3000 nM | > 10000 nM | + (“+” (<0.1 10^−6 cm/s)) | Cc1cccc(C)c1N(C)C(=O)C[N+]1(Cc2ccccc2)CCCCCC1 [Compound 38A, 1-benzyl-1-(2-((2,6-dimethylphenyl) (methyl)amino)-2-oxoethyl) azepan-1-ium formate] |
| 300 to 1000 nM | 3000 to 10000 nM | + (“+” (<0.1 10^−6 cm/s)) | Cc1cccc(C)c1NC(=O)C[N+]1(Cc2ccccc2)CCCC(C(=O)N2CCCCC2)C1 (stereo not drawn) [Compound 63A] |
| 300 to 1000 nM | > 10000 nM | +++ (“+++” (2.0-10.010^−6 cm/s)) | CNC(=O)C1CCC[N+](CC(=O)Nc2c(C)cccc2C)(Cc2ccccc2)C1 (stereo not drawn) [Compound 55A] |

| Compound | IC50 (NaV1.7 [1]) | IC50 (NaV1.7 [2]) | PAMPA (10^−6 cm/s) [3] |
| --- | --- | --- | --- |
| 1-benzyl-1-(2-((2-(dimethylcarbamoyl)-6-methylphenyl) amino)-2-oxoethyl) azepan-1-ium bromide [Compound 81A] | 300 to 1000 nM | > 10000 nM | + (“+” (<0.1 10^−6 cm/s)) |
